Test results published in patent US9827228B2, “Opioid receptor modulators and use thereof” (priority 2015, dated 2017).
pEC50: −log10 of the molar value. Read-outs that look alike come from different tables or passages of the source.

Target: T1, hMOR (Homo sapiens, UniProt P35372)
T1 construct: host or cells: CHO-K1
Assay: cell-based
Format: cell-based
Details: for AUC: AUC of [Ca2+]i fluorescence
Protocol: Chinese hamster ovary (CHO)-K1 cells expressing hMOR and Gα15 (CHO-K1/MOR/Gα15) were cultured in F12 medium (GIBCO) supplemented with 10 μg/mL Hygromycin B (Invivogen), 20 μg/mL Zeocin (Invivogen) and P/S/F (100 units/mL penicillin, 100 μg/mL streptomycin, 10% fetal bovine serum). The cultures were incubated at 37° C. in a humidified 5% CO2 incubator.
One day prior to running the assay, CORNING® black 96-well assay plates having a clear flat bottom were coated with a 0.1 mg/mL Poly-L-Lysine solution. CHO-K1/MOR/Gα15 cells were suspended in F12 medium and plated at a density of about 8×10^4 cells/well in 200 μL medium. Cells were incubated under a humidified atmosphere of 10% CO2 at 37° C. overnight to reach an 80-90% confluent cell monolayer before the assay. On the day of the assay, 150 μL medium was removed from each well of the plates. To each well were added FLIPR® calcium assay reagents (Molecular Devices Corporation, Sunnyvale, Calif., USA; 50 μL) dissolved in 1× assay buffer (HBSS: KCl 5 mM, KH2PO4 0.3 mM, NaCl 138 mM, NaHCO3 4 mM, Na2HPO4 0.3 mM, d-glucose 5.6 mM, with additional 20 mM HEPES and […], pH 7.4) and 2.5 mM probenecid. After incubation at 37° C. for 1 hour, a test compound, alone or together with naloxone (a MOR antagonist), was also added to each well. Using a FlexStationlll instrument (Molecular Devices Corp.), increments of the [Ca^2+]i fluorescence after robotic injection of the cell suspension were monitored at 1.52 s intervals using the excitation wavelength of 485 nm and the emission wavelength of 525 nm. The [Ca^2+]i fluorescence was measured up to 90 s after the injection. The fluorescence intensity from 6 to 12 wells of cells were averaged and the relative amount of [Ca^2+]i release was determined by integrating the AUC of the [Ca^2+]i fluorescence averages.
A CHO-K1 cell line expressing MOR and Gα15 (GenScript) was used to set up a sensitive high-throughput screen (HTS) system. […] The HTS was performed in the absence or presence of naloxone (an opioid antagonist; 20 nM), to identify AAMs.

[1] = combined with naloxone, CHO-K1/MOR/Gα15 cells
[2] = combined with naloxone, CHO-K1/MOR/Gα15 cells, read-out: EC50
[3] = EC50, combined with naloxone, CHO-K1/MOR/Gα15 cells

T1 sequence (P35372 whole entry): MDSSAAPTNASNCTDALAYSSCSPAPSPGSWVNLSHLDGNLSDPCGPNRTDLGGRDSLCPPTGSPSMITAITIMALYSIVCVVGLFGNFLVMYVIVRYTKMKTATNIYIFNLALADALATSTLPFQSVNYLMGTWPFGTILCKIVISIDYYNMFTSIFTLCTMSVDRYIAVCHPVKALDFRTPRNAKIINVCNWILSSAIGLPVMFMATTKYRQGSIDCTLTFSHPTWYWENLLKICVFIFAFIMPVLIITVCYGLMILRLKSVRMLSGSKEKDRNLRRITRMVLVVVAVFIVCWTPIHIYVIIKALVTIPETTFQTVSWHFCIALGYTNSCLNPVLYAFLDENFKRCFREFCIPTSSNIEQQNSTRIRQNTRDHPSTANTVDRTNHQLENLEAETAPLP

Row | Compound | AUC [1] | pEC50 [2] | pEC50 (EC50, combined with naloxone) | pEC50 [3]
1 | COc1cccc(C)c1Nc1nc(-c2sc(C)nc2C)cs1 [Compound 4, N-(2-Methoxy-6-methylphenyl)-2′,4′-dimethyl-4,5′-bi-1,3-thiazol-2-amine] | + (+: >5000) | < 5.00 | – | –
2 | Cc1nc(C)c(-c2csc(Nc3ccccc3Oc3ccccc3)n2)s1 [Compound 6, N-(2-Phenoxyphenyl)-2′,4′-dimethyl-4,5′-bi-1,3-thiazol-2-amine] | − (−: <5000) | < 5.00 | – | –
3 | Cc1nc(C)c(-c2csc(Nc3ccccc3Cl)n2)s1 [Compound 8, N-(2-Chlorophenyl)-2′,4′-dimethyl-4,5′-bi-1,3-thiazol-2-amine] | − (−: <5000) | < 5.00 | – | –
4 | Cc1nc(C)c(-c2csc(Nc3ccccc3F)n2)s1 [Compound 9, N-(2-Fluorophenyl)-2′,4′-dimethyl-4,5′-bi-1,3-thiazol-2-amine] | − (−: <5000) | < 5.00 | – | –
5 | Cc1nc(C)c(-c2csc(Nc3cc(F)ccc3C)n2)s1 [Compound 10, N-(5-Fluoro-2-methylphenyl)-2′,4′-dimethyl-4,5′-bi-1,3-thiazol-2-amine] | − (−: <5000) | < 5.00 | – | –
6 | COc1ccc(C)c(Nc2nc(-c3sc(C)nc3C)cs2)c1 [Compound 12, N-(5-Methoxy-2-methylphenyl)-2′,4′-dimethyl-4,5′-bi-1,3-thiazol-2-amine] | − (−: <5000) | < 5.00 | – | –
7 | COc1ccc(Nc2nc(-c3sc(C)nc3C)cs2)c(OC)c1 [Compound 14, N-(2,4-Dimethoxyphenyl)-2′,4′-dimethyl-4,5′-bi-1,3-thiazol-2-amine] | + (+: >5000) | < 5.00 | – | –
8 | Cc1nc(C)c(-c2csc(Nc3cc(Cl)ccc3C)n2)s1 [Compound 15, N-(5-Chloro-2-methylphenyl)-2′,4′-dimethyl-4,5′-bi-1,3-thiazol-2-amine] | − (−: <5000) | < 5.00 | – | –
9 | Cc1cc(C)c(Nc2nc(-c3sc(C)nc3C)cs2)c(C)c1 [Compound 17, 2′,4′-Dimethyl-N-(2,4,6-trimethylphenyl)-4,5′-bi-1,3-thiazol-2-amine] | + (+: >5000) | – | > 5.00 | 5.00 to 5.52
10 | Cc1nc(C)c(-c2csc(Nc3cc(Br)ccc3C)n2)s1 [Compound 19, N-(5-Bromo-2-methylphenyl)-2′,4′-dimethyl-4,5′-bi-1,3-thiazol-2-amine] | − (−: <5000) | < 5.00 | – | –
11 | Cc1nc(C)c(-c2csc(Nc3cccc(F)c3C)n2)s1 [Compound 21, N-(3-Fluoro-2-methylphenyl)-2′,4′-dimethyl-4,5′-bi-1,3-thiazol-2-amine] | + (+: >5000) | < 5.00 | – | –
12 | Cc1nc(C)c(-c2csc(Nc3c(C(C)C)cccc3C(C)C)n2)s1 [Compound 23, N-(2,6-Diisopropylphenyl)-2′,4′-dimethyl-4,5′-bi-1,3-thiazol-2-amine] | − (−: <5000) | < 5.00 | – | –
13 | Cc1ccc(C)c(Nc2nc(-c3sc(C)nc3C)cs2)c1 [Compound 25, N-(2,5-Dimethylphenyl)-2′,4′-dimethyl-4,5′-bi-1,3-thiazol-2-amine] | − (−: <5000) | < 5.00 | – | –
14 | COc1cc(C)c(Nc2nc(-c3sc(C)nc3C)cs2)cc1OC [Compound 27, N-(4,5-Dimethoxy-2-methylphenyl)-2′,4′-dimethyl-4,5′-bi-1,3-thiazol-2-amine] | − (−: <5000) | < 5.00 | – | –
15 | Cc1ccc(Nc2nc(-c3sc(C)nc3C)cs2)c(C)c1 [Compound 29, N-(2,4-Dimethylphenyl)-2′,4′-dimethyl-4,5′-bi-1,3-thiazol-2-amine] | + (+: >5000) | – | > 5.00 | 5.00 to 5.52
16 | Cc1nc(C)c(-c2csc(Nc3ccc(F)cc3C)n2)s1 [Compound 31, N-(4-Fluoro-2-methylphenyl)-2′,4′-dimethyl-4,5′-bi-1,3-thiazol-2-amine] | − (−: <5000) | < 5.00 | – | –
17 | Cc1nc(C)c(-c2csc(Nc3c(C)cccc3F)n2)s1 [Compound 33, N-(2-Fluoro-6-methylphenyl)-2′,4′-dimethyl-4,5′-bi-1,3-thiazol-2-amine] | + (+: >5000) | – | > 5.00 | 5.00 to 5.52

Row | Compound | AUC [1] | pEC50 [2] | pEC50 (EC50, combined with naloxone) | pEC50 [3]
18 | COc1ccc(Nc2nc(-c3sc(C)nc3C)cs2)c(C)c1 [Compound 35, N-(4-Methoxy-2-methylphenyl)-2′,4′-dimethyl-4,5′-bi-1,3-thiazol-2-amine] | + (+: >5000) | < 5.00 | – | –
19 | COc1cc(Nc2nc(-c3sc(C)nc3C)cs2)cc(OC)c1OC [Compound 37, 2′,4′-Dimethyl-N-(3,4,5-trimethoxyphenyl)-4,5′-bi-1,3-thiazol-2-amine] | − (−: <5000) | < 5.00 | – | –
20 | Cc1cc(C)cc(Nc2nc(-c3sc(C)nc3C)cs2)c1 [Compound 39, N-(3,5-Dimethylphenyl)-2′,4′-dimethyl-4,5′-bi-1,3-thiazol-2-amine] | − (−: <5000) | < 5.00 | – | –
21 | Cc1nc(C)c(-c2csc(Nc3c(C)cccc3C)n2)s1 [Compound 41, N-(2,6-Dimethylphenyl)-2′,4′-dimethyl-4,5′-bi-1,3-thiazol-2-amine] | − (−: <5000) | < 5.00 | – | –
22 | Cc1nc(C)c(-c2csc(Nc3ccc(Br)cc3C)n2)s1 [Compound 42, N-(4-Bromo-2-methylphenyl)-2′,4′-dimethyl-4,5′-bi-1,3-thiazol-2-amine] | − (−: <5000) | < 5.00 | – | –
23 | Cc1nc(C)c(-c2csc(Nc3ccc(Br)cc3C(F)(F)F)n2)s1 [Compound 43, N-[4-Bromo-2-(trifluoromethyl)phenyl]-2′,4′-dimethyl-4,5′-bi-1,3-thiazol-2-amine] | + (+: >5000) | < 5.00 | – | –
24 | CC(=O)c1ccc(Nc2nc(-c3sc(C)nc3C)cs2)cc1 [Compound 44, 1-{4-[(2′,4′-Dimethyl-4,5′-bi-1,3-thiazol-2-yl)amino]phenyl}ethanone] | − (−: <5000) | – | – | < 5.00
25 | CCc1cccc(CC)c1Nc1nc(-c2sc(C)nc2C)cs1 [Compound 45, N-(2,6-Diethylphenyl)-2′,4′-dimethyl-4,5′-bi-1,3-thiazol-2-amine] | − (−: <5000) | – | > 5.00 | 5.52 to 6.00
26 | CCc1cccc(C)c1Nc1nc(-c2sc(C)nc2C)cs1 [Compound 47, N-(2-Ethyl-6-methylphenyl)-2′,4′-dimethyl-4,5′-bi-1,3-thiazol-2-amine] | + (+: >5000) | – | > 5.00 | 5.52 to 6.00
27 | CCc1cc(Br)ccc1Nc1nc(-c2sc(C)nc2C)cs1 [Compound 49, N-(4-Bromo-2-ethylphenyl)-2′,4′-dimethyl-4,5′-bi-1,3-thiazol-2-amine] | − (−: <5000) | – | > 5.00 | 5.00 to 5.52
28 | Cc1nc(C)c(-c2csc(Nc3c(C)cc(Cl)cc3C)n2)s1 [Compound 51, N-(4-Chloro-2,6-dimethylphenyl)-2′,4′-dimethyl-4,5′-bi-1,3-thiazol-2-amine] | − (−: <5000) | < 5.00 | – | –
29 | Cc1nc(C)c(-c2csc(Nc3cccc(C)c3C)n2)s1 [Compound 53, N-(2,3-Dimethylphenyl)-2′,4′-dimethyl-4,5′-bi-1,3-thiazol-2-amine] | + (+: >5000) | < 5.00 | – | –
30 | Cc1nc(C)c(-c2csc(Nc3c(C)cc(F)cc3C)n2)s1 [Compound 55, N-(4-Fluoro-2,6-dimethylphenyl)-2′,4′-dimethyl-4,5′-bi-1,3-thiazol-2-amine] | + (+: >5000) | < 5.00 | – | –
31 | Cc1nc(C)c(-c2csc(Nc3ccc(C(=O)O)cc3C)n2)s1 [Compound 57, 4-[(2′,4′-Dimethyl-4,5′-bi-1,3-thiazol-2-yl)amino]-3-methylbenzoic acid] | − (−: <5000) | < 5.00 | – | –
32 | Cc1nc(C)c(-c2csc(Nc3ccc(O)cc3C)n2)s1 [Compound 60, 4-[(2′,4′-Dimethyl-4,5′-bi-1,3-thiazol-2-yl)amino]-3-methylphenol] | − (−: <5000) | < 5.00 | – | –
33 | Cc1nc(C)c(-c2csc(Nc3ccccc3CO)n2)s1 [Compound 62, {2-[(2′,4′-Dimethyl-4,5′-bi-1,3-thiazol-2-yl)amino]phenyl}methanol] | − (−: <5000) | < 5.00 | – | –
34 | Cc1nc(C)c(-c2csc(Nc3ccccc3O)n2)s1 [Compound 65, 2-[(2′,4′-Dimethyl-4,5′-bi-1,3-thiazol-2-yl)amino]phenol] | + (+: >5000) | < 5.00 | – | –
